Here are results for one compound from EP0721336B1, “BENZAZOLE COMPOUNDS FOR USE IN THERAPY” (CANCER RESEARCH CAMPAIGN TECHNOLOGY LIMITED, priority 1993, dated 1995).

What all share (format): cell-based, human
Experiment [1] deals with MDA 468 mammary (ER-/EGFR+). As to the kind of experiment: In vitro cytotoxicity assay. Conditions: Homo sapiens, column A; read-out: MDA 468 A IC50 at sub-micromolar concentrations. From the text:
(§1) This is illustrated in Tables 1 and 2 at the end of the present description which show in vitro test results obtained in various sets of experiments for the cytotoxic activity of this compound CJM 126 against a range of human tumour cell lines, expressed in terms of IC50 values (concentration or dosage required to reduce cell growth or proliferation by 50%) calculated from dose-effect curves plotted for cultures of the cells in question.
(§2) In carrying out the above in vitro studies, the method used for conducting the cytotoxicity assays was generally substantially as follows: • Cells were maintained in a continuous logarithmic culture in Dulbecco's medium supplemented with 10% fetal calf serum and penicillin (100 IU/ml) and streptomycin (100 µg/ml). The cells were mildly trypsinized for passage and for use in assays. On day zero, 100µl of trypsinized tumour cells (1 x 10^4/ml) were plated in the wells of 96-well flat-bottom microtiter plates. […] On day two 50µl of the highest drug concentration was added to the wells of column 12 and from there serially diluted 3-fold to column 1 by serial transfer of 50µl using an 8-channel micropipette. The final volume of column 1 was adjusted to 100µl. No additions were made to the wells of rows A and B, which served as controls. The plates were further incubated for 5 days at 37°C and 5% CO2 in air. Each compound was tested in duplicate. • On day 7 the test was terminated by the addition of 100µl saline containing 0.002% w/v propidium iodide (Sigma), 0.3% drawing ink (Staedtler "Marsmatic 745" - Trade Mark) and 0.5% Triton X-100. The plates were kept at 4°C overnight before reading on an inverted microscope equipped with an automated scanning stage. Fluorescence intensity was measured in arbitrary units by a photomultiplier. An HP-87 computer controlled the movement of the stage and also collected and processed the data from the multiplier. • For each compound tested a dose-response curve was obtained and the IC50 value (the drug concentration at 50% inhibition of cell growth) was calculated.

The test system of a further experiment is MCF 7-ADR mammary. As to the kind of experiment: In vitro cytotoxicity and growth stimulation assay. The note with it: Homo sapiens, NCI/ADR-RES; column B; read-out: MCF7-Adr B IC50 at >micromolar concentrations.
Source text: as §1, §2

Experiment [2] concerns MCF-7 mammary carcinoma cells. As to the kind of experiment: In vitro cytotoxicity assay (cell growth, propidium iodide fluorescence). The note with it: Homo sapiens, MCF-wt; column B; read-out: MCF-wt B IC50 at >micromolar concentrations.
Source text: as §1, §2

The structures appear in SMILES notation.

As to `COc1cc(OC)c2sc(-c3ccc(N)cc3)nc2c1` [DF162D, 2-(4-Aminophenyl)-5,7-dimethoxybenzothiazole], the figures for the IC50 (in experiment [1]; with MCF 7-ADR mammary; in experiment [2]) were 0.0035 µM, 20.9 µM and 19.3 µM, respectively.
